Test results taken from PubChem BioAssay AID1963966 (Molecular Pharmacology Branch, DTP, NCI, 2024).

Tested on: 935938-334-R-J1-PDC spheroids with HUVEC/MSC, viability
Assay: Anticancer human tumor 935938-334-R-J1-PDC patient-derived small intestine adenocarcinoma cell line growth inhibition [PI3K]
Conditions: for IC50: curve of first compound; for viability, T/C: stronger effect = lower value
From the text: Combinatorial screen of targeted agents with the PI3K inhibitors inavolisib, alpelisib, duvelisib, and copanlisib in multi-cell type tumor spheroids
A high-throughput screen of multi-cell type tumor spheroids was designed to identify active combinations of targeted small molecules and PI3K pathway inhibitors. Complex spheroids include a stromal component modeled by human endothelial cells (HUVEC) and fibroblasts modeled by human mesenchymal stem cells (MSCs). The concentration ranges selected for each drug and investigational agent were based upon clinically achievable concentrations if the clinical Cmax of the agent was known.
Compounds. The drugs and investigational agents: inavolisib (NSC800729), alpelisib (NSC765974), duvelisib (NSC772469), copanlisib (NSC816437), ipatasertib (NSC767898), afuresertib (NSC778305), talazoparib (NSC767125), sapanisertib (NSC764658), selumetinib (NSC741078), tovorafenib (DAY101, NSC766906), vemurafenib (NSC761431), ravoxertinib (NSC781343), sotorasib (NSC818433), MRTX1133 (NSC 836407), abemaciclib (NSC 768073), palbociclib (NSC758247), venetoclax (NSC 766270), SY5609 (NSC837396), enzalutamide (NSC755605), and darolutamide (NSC825331), were obtained from the National Cancer Institute (NCI) Developmental Therapeutics Program Chemical Repository. The FDA-approved anticancer drug set is available from the NCI Developmental Therapeutics Program. […] The stock solutions were prepared in dimethyl sulfoxide (DMSO, Sigma-Aldrich, St. Louis, MO, cat. D2650) at 800-fold the tested concentration and stored at -70 degrees C prior to their use. All drugs and investigational agents were tested over a range starting from a high concentration at or near the clinical Cmax and decreasing in half-log increments. If the clinical Cmax for an agent had not been determined, the highest concentration tested was 10 microM.
Cell Culture. All cells were maintained in an incubator at 37 degrees C and 5% CO2 with 95% humidity. The PDC lines were cultured according to standard operating procedures established by the NCI PDMR (https://pdmr.cancer.gov/sops/default.htm). All PDCs were thawed and cultured in Matrigel-coated flasks prepared with a working solution of 1X Ham's F-12 nutrient mix, without supplementation (Invitrogen, Waltham, MA, cat. 11765054), 100 U/mL penicillin-streptomycin (Invitrogen, cat. 15140122), and 2.5% Matrigel (Corning Inc., Corning, NY, cat. 354248) for the first three passages. The 354836-022-R-J1-PDC, 475296-252-R-J1-PDC, and 997726-040-R-J2-PDC lines were cultured in 6A media, which includes advanced DMEM/F-12 (Thermo Fisher Scientific, cat. 12634028), 10 mM HEPES (Thermo Fisher Scientific, cat. 15630080), 1X GlutaMAX supplement (Thermo Fisher Scientific, cat. 35050061), 0.1 mg/mL primocin (InvivoGen, San Diego, CA, cat. ant-pm-2), 10% defined fetal bovine serum, heat inactivated (HyClone Laboratories Inc., Logan, UT, cat. SH30070.03HI), 50% L-WRN conditioned media (ATCC, cat. CRL-3276), 1.25 mM N-Acetyl-L-cysteine (Sigma-Aldrich, cat. A9165), 10 mM nicotinamide (Sigma-Aldrich, cat. N0636), 1X B-27 supplement (Thermo Fisher Scientific, cat. 17504044), 1X N-2 supplement (Thermo Fisher Scientific, cat. 17502048), and 10 microM Y-27632 dihydrochloride (Tocris Bioscience, Bristol, United Kingdom, cat. 1254). The 624824-186-R-J2-PDC line was cultured in 6C/Colon 1B media, which includes all 6A media components plus 50 ng/mL human EGF recombinant protein (Thermo Fisher Scientific, cat. PHG0311). […]

[1] = second compound 0.00316 µM, first compound 0.0316 µM
[2] = second compound 0.00316 µM, first compound 0.1 µM
[3] = second compound 0.01 µM, first compound 0.0316 µM
[4] = second compound 0.01 µM, first compound 0.1 µM
[5] = second compound 0.0316 µM, first compound 0.0316 µM
[6] = second compound 0.0316 µM, first compound 0.1 µM
[7] = second compound 0.1 µM, first compound 0.0316 µM
[8] = second compound 0.1 µM, first compound 0.1 µM
[9] = second compound 0.316 µM, first compound 0.0316 µM
[10] = second compound 0.316 µM, first compound 0.1 µM
[11] = second compound 1 µM, first compound 0.0316 µM
[12] = second compound 1 µM, first compound 0.1 µM
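Further: compound exposure lasted seven days before viability was read.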
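Wherever viability, T/C is given: percent of vehicle DMSO treated spheroid viability so 100% = untreated.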

## C[C@@H](NC(=O)c1ncnc(N)c1Cl)c1ncc(C(=O)Nc2cc(C(F)(F)F)c(Cl)cn2)s1 + CC(Nc1ccc2c(c1)OCCn1cc(N3C(=O)OCC3C(F)F)nc1-2)C(N)=O
Second compound 0.00316 µM
  IC50: > 10 µM
Second compound 0.01 µM
  IC50: > 10 µM
Second compound 0.0316 µM
  IC50: > 10 µM
Second compound 0.1 µM
  IC50: > 10 µM
Second compound 0.316 µM
  IC50: 9.36 µM
Second compound 1 µM
  IC50: 9.57 µM
[1]
  viability, T/C: 97.2%
[2]
  viability, T/C: 92.4%
Second compound 0.00316 µM, first compound 0.316 µM
  viability, T/C: 104%
Second compound 0.00316 µM, first compound 1 µM
  viability, T/C: 110%
Second compound 0.00316 µM, first compound 3.16 µM
  viability, T/C: 87.5%
Second compound 0.00316 µM, first compound 10 µM
  viability, T/C: 99.4%
[3]
  viability, T/C: 95.3%
[4]
  viability, T/C: 88.6%
Second compound 0.01 µM, first compound 0.316 µM
  viability, T/C: 105%
Second compound 0.01 µM, first compound 1 µM
  viability, T/C: 107%
Second compound 0.01 µM, first compound 3.16 µM
  viability, T/C: 111%
Second compound 0.01 µM, first compound 10 µM
  viability, T/C: 90.5%
[5]
  viability, T/C: 94.8%
[6]
  viability, T/C: 88.8%
Second compound 0.0316 µM, first compound 0.316 µM
  viability, T/C: 92.7%
Second compound 0.0316 µM, first compound 1 µM
  viability, T/C: 113%
Second compound 0.0316 µM, first compound 3.16 µM
  viability, T/C: 99.6%
Second compound 0.0316 µM, first compound 10 µM
  viability, T/C: 80.3%
[7]
  viability, T/C: 89%
[8]
  viability, T/C: 98.4%
Second compound 0.1 µM, first compound 0.316 µM
  viability, T/C: 100%
Second compound 0.1 µM, first compound 1 µM
  viability, T/C: 107%
Second compound 0.1 µM, first compound 3.16 µM
  viability, T/C: 92.6%
Second compound 0.1 µM, first compound 10 µM
  viability, T/C: 85.6%
[9]
  viability, T/C: 108%
[10]
  viability, T/C: 111%
Second compound 0.316 µM, first compound 0.316 µM
  viability, T/C: 83.7%
Second compound 0.316 µM, first compound 1 µM
  viability, T/C: 79%
Second compound 0.316 µM, first compound 3.16 µM
  viability, T/C: 104%
Second compound 0.316 µM, first compound 10 µM
  viability, T/C: 47.2%
[11]
  viability, T/C: 66.7%
[12]
  viability, T/C: 95.4%
Second compound 1 µM, first compound 0.316 µM
  viability, T/C: 78.4%
Second compound 1 µM, first compound 1 µM
  viability, T/C: 86.5%
Second compound 1 µM, first compound 3.16 µM
  viability, T/C: 90%
Second compound 1 µM, first compound 10 µM
  viability, T/C: 48.7%

## Cn1ncnc1[C@H]1c2n[nH]c(=O)c3cc(F)cc(c23)N[C@@H]1c1ccc(F)cc1 + CC(Nc1ccc2c(c1)OCCn1cc(N3C(=O)OCC3C(F)F)nc1-2)C(N)=O
Second compound 0.00316 µM
  IC50: > 0.1 µM
Second compound 0.01 µM
  IC50: > 0.1 µM
Second compound 0.0316 µM
  IC50: > 0.1 µM
Second compound 0.1 µM
  IC50: > 0.1 µM
Second compound 0.316 µM
  IC50: > 0.1 µM
Second compound 1 µM
  IC50: 0.01 µM
Second compound 0.00316 µM, first compound 0.000316 µM
  viability, T/C: 87.1%
Second compound 0.00316 µM, first compound 0.001 µM
  viability, T/C: 99.8%
Second compound 0.00316 µM, first compound 0.00316 µM
  viability, T/C: 102%
Second compound 0.00316 µM, first compound 0.01 µM
  viability, T/C: 87.2%
[1]
  viability, T/C: 78.6%
[2]
  viability, T/C: 78.2%
Second compound 0.01 µM, first compound 0.000316 µM
  viability, T/C: 79.6%
Second compound 0.01 µM, first compound 0.001 µM
  viability, T/C: 83.4%
Second compound 0.01 µM, first compound 0.00316 µM
  viability, T/C: 112%
Second compound 0.01 µM, first compound 0.01 µM
  viability, T/C: 87.5%
[3]
  viability, T/C: 73.7%
[4]
  viability, T/C: 95.7%
Second compound 0.0316 µM, first compound 0.000316 µM
  viability, T/C: 84.6%
Second compound 0.0316 µM, first compound 0.001 µM
  viability, T/C: 102%
Second compound 0.0316 µM, first compound 0.00316 µM
  viability, T/C: 84.2%
Second compound 0.0316 µM, first compound 0.01 µM
  viability, T/C: 67.9%
[5]
  viability, T/C: 80.6%
[6]
  viability, T/C: 103%
Second compound 0.1 µM, first compound 0.000316 µM
  viability, T/C: 88.1%
Second compound 0.1 µM, first compound 0.001 µM
  viability, T/C: 102%
Second compound 0.1 µM, first compound 0.00316 µM
  viability, T/C: 95.3%
Second compound 0.1 µM, first compound 0.01 µM
  viability, T/C: 79.7%
[7]
  viability, T/C: 93.3%
[8]
  viability, T/C: 78.2%
Second compound 0.316 µM, first compound 0.000316 µM
  viability, T/C: 70.5%
Second compound 0.316 µM, first compound 0.001 µM
  viability, T/C: 94.3%
Second compound 0.316 µM, first compound 0.00316 µM
  viability, T/C: 82.2%
Second compound 0.316 µM, first compound 0.01 µM
  viability, T/C: 91.3%
[9]
  viability, T/C: 62.4%
[10]
  viability, T/C: 85.8%
Second compound 1 µM, first compound 0.000316 µM
  viability, T/C: 67.6%
Second compound 1 µM, first compound 0.001 µM
  viability, T/C: 72%
Second compound 1 µM, first compound 0.00316 µM
  viability, T/C: 45.1%
Second compound 1 µM, first compound 0.01 µM
  viability, T/C: 44.5%
[11]
  viability, T/C: 61.3%
[12]
  viability, T/C: 51%
